From patent US20240130988A1, “Use of stilbene compounds in the preparation of anti-tumor drugs” (Guangzhou AnHao Pharmaceutical Technology CO., LTD., priority 2022, published 2024)
Marks after values point to notes of the source that are not given here.

Key:
[1] = test system: human liver cancer QGY7703; assay: Human liver cancer QGY7703 transplanted tumor in nude mice; format: in vivo, BALB/C nude mice; design: key to RTV (d 18): RTV = Vt/Vo, tumor volume relative to volume at grouping (d1); conditions: QGY7703, 100 mg/kg iv × 14
Experimental: A human liver cancer QGY7703 model transplanted into nude mice was used in the experiment to investigate the anti-tumor effect of test compounds. The mice were intravenously injected at a dosage of 100 mg/kg for 14 days, and the tumor inhibition rate against human liver cancer QGY7703 was measured.
(§1) Preparation: The compound was prepared as the injection at the desired concentration with sterile normal saline, prior to administration.
Animal strain: BALB/C nude mice (SPF grade), weight: 19-21 g, gender: male. Number of animals in each treatment group: 8; number of animals in the control group: >12.
The tumor blocks of human liver cancer QGY7703 with good growth were cut into uniform small pieces of 3 mm under sterile conditions, and then subcutaneously inoculated into the right armpit of each mouse with a cannula. These mice were divided into 9 groups, 8 mice for each treatment group, while more than 12 mice were included in the control group.
(§2) 14 days after inoculation, the average volume of the tumor block was about 100 mm^3. The animals were regrouped based on the size of the tumor, and the animals with tumors that were too large and too small were sifted out. For each group, the average volume of tumors was basically the same, and then the mice were initially treated with test compounds. The mice in the treatment groups were intravenously injected once a day for 14 days, at a dosage of 0.1 mL/20 g body weight; the mice in the control group were given the same volume of sterile normal saline. From the 14th day of inoculation, the long diameter a (mm) of the tumor, together with the perpendicular short diameter b (mm), was measured using a digital electronic caliper, twice a week. The calculation formula of tumor volume is: TV=ab^2/2, and the formula for calculating the relative tumor volume is RTV=Vt/Vo, wherein Vo denotes the tumor volume measured when the mice were divided into groups (i.e. d1), and Vt is the tumor volume from each measurement.
(§3) The result determination is based on the following formula: […]

[2] = test system: LLC (mouse lung cancer cells); assay: Enrichment of CD8+ cytotoxic T lymphocytes in tumor tissue, Lewis non-small cell lung cancer model of mice; format: in vivo; conditions: 400 mg/kg ip once a day for 10 days, flow cytometry
Experimental: LLC (mouse lung cancer cells) were a mouse Lewis lung cancer cells.
The modeling method for LLC cell lung cancer in mice was as follows:
LLC cells were cultured in the general medium containing 10% fetal bovine serum and 100 μg/mL of double antibody (penicillin±streptomycin), and then cultivated in a 37° C., 5% CO2 cell incubator for routine incubation. LLC cells, that had grown to logarithmic phase, were digested with 0.25% trypsin (containing EDTA) to form a cell suspension, which was centrifuged at 1000 rpm/min for 3 min. The supernatant was discarded, and cell precipitates were collected, that were resuspended in culture medium without serum and double antibody. The cell suspension was further centrifuged to adjust the volume under the same conditions with the aid of cell counting, so as to prepare a cell suspension at a concentration of […] was injected into the right abdomen of each mouse, to complete the inoculation of tumor cells. The tumor was allowed to grew about 10 days, and the volume reached around 100 mm^3, before the mice were treated with test compounds.
Drug preparation: compounds 1-13 of the present invention were respective prepared into an injection with injection water.
Experimental methods: The model mice with LLC cell lung cancer were treated by intraperitoneal administration of 400 mg/kg injection containing the compound of the present invention. The model mice were divided into a negative control group (model mice only receiving equal volume of injection water by intraperitoneal administration) and treatment groups (model mice receiving the injection prepared with the compound of the present invention by intraperitoneal administration). The intraperitoneal injection regimen was carried out by injecting once a day at the pre-determined time. Before administration, the mice were weighed, and then treated with the injection at a dosage of 10 mL/kg, After successive administration for 10 days, that is, on the 10th day after receiving treatment, the mice were sacrificed, and the subcutaneous tumors were stripped to detect the ratio of cytotoxic T lymphocyte antigen CD8^+ in tumor tissues of the negative group and the treatment group by flow cytometry.
CD8^+ tumor-infiltrating lymphocytes in tumor tissues were detected by flow cytometry. The specific steps were as follows:
The mice were sacrificed, and then the abdominal epidermis of the mice was cut open using ophthalmic scissors, to fully expose the subcutaneous tumors. The subcutaneous tumor tissues on the right side of the mouse's abdomen were gradually peeled off with tweezers and ophthalmic scissors. After rinsing with PBS, the stripped tumor tissues were cut into about 1 mm using ophthalmic scissors, and then placed in 3 mL of PBS buffer containing 100 μg/mL of hyaluronidase. A centrifuge tube containing a dispersed liquid was placed in a water bath and kept at 37° C. for 20 min. A pipette was used to blow and shake the digestive tumor tissues every 5 minutes to fully digest. The dispersed liquid containing undigested tumor tissues was filtered through a 70 μm stainless steel cell screen, and the remaining undigested tumor tissues were ground using a push rod of 20 mL syringe on 70 μm cell screen and rinsed 5 times with 1 mL of PBS while grinding. The cell suspension passing the cell screen was transferred to a 15 mL centrifuge tube, and centrifuged at 4000 rpm for 3 min. Then, cell precipitates were collected, to which was added 2 mL of red cell lysis buffer, and rested for 10 min, followed by centrifuging at 4000 rpm for 3 min. After washing with PBS, the cells were resuspended by adding 2-3 mL of PBS.
An appropriate amount of cell suspension was used as the sample for flow cytometry, and after counting, the cell suspension was adjusted to have a concentration of 5×10^6/mL. 100 μL of cell suspension was added to a test tube with a pipettor. […]

[3] = test system: nonfusion human umbilical vein endothelial cells (HUVEC); assay: TMT quantitative proteomics on nonfusion HUVEC; format: cell-based; conditions: 10 μM; for Differentially expressed proteins: more than 1.5 times or less than 0.67 times vs control; for Down-regulation / Up-regulation: number of proteins
Experimental: Nonfusion human umbilical vein endothelial cells (HUVEC) were used to simulate new tumor blood vessels, while confluent HUVECs were used to simulate normal blood vessels, to construct experimental models. Two different HUVECs were treated with the compound at the same dosage of 10 μM, to simulate the fusion cell state, and proteome samples were prepared. After preparation of peptide segments, the segments were labelled with TMT, and a quantitative proteomics analysis was carried out. The efficiency of TMT labeling was higher than 99.4%, and a total of 28372 peptide segments from 4934 proteins were characterized using a strict 1% FDR limit. Among them, 4909 quantifiable proteins were identified, indicating reliable quality. The nonfusion treatment groups and the fusion treatment groups were compared with their respective control groups, and the control group was used as a reference, with a significant difference of more than 1.5 times or less than 0.67 times as the protein score standard.
The total cell proteins of the samples in nonfusion cell groups and fusion cell groups were extracted separately, and 2 μg of protein samples were subjected to quality analysis, The quantitative proteomics experiments were carried out, and the protein concentration assay was performed by quantitative grayscale measurement.
Data analysis: The human protein database (Scientific name: Homo sapiens, 9606) was downloaded from UniProt, MaxQuant (v 1.5.5.1) search engine was used to search for the database. A total of 4934 proteins (4909 quantitative proteins) and 28372 peptide segments were identified by TMT quantitative proteomics experiments, with a labeling efficiency of more than 99%, and the complete digestion occupied 86.3%.

[4] = test system: LLC (mouse lung cancer cells); assay: Enrichment of CD8+ cytotoxic T lymphocytes in tumor tissue, Lewis non-small cell lung cancer model of mice; format: in vivo; conditions: 400 mg/kg ip once a day for 10 days, CD8+ immunohistochemistry
[5] = test system: human renal cell carcinoma AGHN; assay: Human renal cell carcinoma AGHN transplanted tumor in nude mice; format: in vivo, BALB/C nude mice; conditions: 200 mg/kg ip × 14
Experimental: A human renal cell carcinoma AGHN model transplanted into nude mice was used in the experiment to investigate the anti-tumor effect of test compounds. […] AGHN was measured.
as §1
Animal strain: BALB/C, nude mice (SPF grade), weight: 19-21 g, gender: male. Number of animals in each treatment group: 8; number of animals in the control group: >12.
The tumor blocks of human renal cell carcinoma AGHN with good growth were cut into uniform small pieces of 3 mm under sterile conditions, and then subcutaneously inoculated into the right armpit of each mouse with a cannula. The mice were divided into 9 groups, 8 mice for each treatment group, while >12 mice were included in the control group.
as §2, with “about 100 mm^3, The animals” for “about 100 mm^3. The animals”, “The mice were intraperitoneally” for “The mice in the treatment groups were intravenously”, “mice were intraperitoneally injected once” for “groups were intravenously injected once”, “dosage of 0.2 mL/20 g” for “dosage of 0.1 mL/20 g”, “tumor volume is: RTV=Vt/Vo, wherein” for “tumor volume is RTV=Vt/Vo, wherein”, “and Vt denotes the tumor” for “and Vt is the tumor”
as §3

human lung cancer A549 = assay: Human lung cancer A549 transplanted tumors in nude mice; format: in vivo, BALB/C nude mice; conditions: A549, 400 mg/kg ig × 14
Experimental: In this experiment, a human lung cancer A549 model transplanted into nude mice was selected to study the anti-tumor effect of test compounds. The mice were treated at a dosage of 400 mg/kg by gavage for 14 days, and the tumor inhibition rate against human lung cancer A549 was measured.
Preparation: The compound was prepared as the solution at the desired concentration with distilled water, prior to administration.
Animal strain: BALB/C nude mice (SPF grade), weight: 19-21 g, gender: male. Number of animals in each treatment group: 8; Number of animals in the control group: >12.
Lung cancer A549 tumor blocks with good growth were chosen and cut into uniform small pieces of 3 mm under sterile conditions, and then subcutaneously inoculated into the right armpit of each mouse with a cannula. These mice were divided into 9 groups, 8 mice for each treatment group, while more than 12 mice were included in the control group.
14 days after inoculation, the average volume of the tumor mass was about 100 mm^3. The animals were regrouped based on the size of the tumor, and the mice with tumors that were too large and too small were eliminated. For each group, the average volume of tumors was basically the same, and then the mice were treated with test compounds. The mice in the treatment groups were administered once a day by gavage for 14 successive days, at a dosage of 0.5 mL/20 g body weight; the mice in the control group were given the same volume of physiological saline. From the 14th day of inoculation, the long diameter a (mm) of the tumor, together with the perpendicular short diameter b (mm), was measured using a digital electronic caliper, twice a week. The calculation formula of tumor volume is: TV=ab^2/2, and the formula for calculating the relative tumor volume is RTV=Vt/Vo, wherein Vo denotes the tumor volume measured when the mice were divided into groups (i.e. d1), and Vt is the tumor volume from each measurement.
as §3

[6] = test system: human ovarian cancer A2780; assay: Human ovarian cancer A2780 transplanted tumor in nude mice; format: in vivo, BALB/C nude mice; conditions: A2780, 200 mg/kg ip × 14
Experimental: A human ovarian cancer A2780 model transplanted into nude mice was used in the experiment to investigate the anti-tumor effect of test compounds.
as §1
Animal strain: BALB/C nude mice (SPF grade), weight: 19-21 g, gender: male.
Number of animals in each treatment group: 8; number of animals in the control group: >12.
The tumor blocks of human ovarian cancer A2780 growing well were cut into uniform small pieces of 3 mm under sterile conditions, and then subcutaneously inoculated into the right armpit of each mouse with a cannula. The mice were divided into 9 groups, 8 mice for each treatment group, while >12 mice were included in the control group.
as §2, with “mice” for “mice in the treatment groups”, “intraperitoneally” for “intravenously”, “0.2” for “0.1”
as §3

In the case of COc1ccc(/C=C(/C(=O)O)c2cc(OC)c(OC)c(OC)c2)c(OC)c1O [Compound 12, (E)-3-(3-hydroxy-2,4-dimethoxyphenyl)-2-(3,4,5-trimethoxyphenyl)acrylic acid], the inhibition in vivo at 100 mg/kg ([1]; Mus musculus, QGY-7703, read-out: Tumor inhibitory rate %) is reported as 62.2%, the “RTV (d 18)” value [1] is reported as 4.86 ± 0.59 and the “The ratio of CD8^+ in total immune cells of tumor tissues (%)” value [2] is reported as 0.0753 ± 0.0103%. For the same molecule, the Differentially expressed proteins [3] was 322, the Down-regulation [3] was 314 and the Up-regulation [3] was 8. For the same molecule, the “The ratio of distribution area in tumor tissues (%)” value [4] was 5.883 ± 0.6723%, the “RTV (d 18)” value [5] was 5.62 ± 0.59 and the “Tumor inhibitory rate %” value [5] was 58.48^## %.

In the case of CCOc1ccc(/C=C(/C(=O)O)c2cc(OC)c(OC)c(OC)c2)cc1O [Compound 13, (E)-3-(4-ethoxy-3-hydroxyphenyl)-2-(3,4,5-trimethoxyphenyl)acrylic acid], the “The ratio of CD8^+ in total immune cells of tumor tissues (%)” value [2] is reported as 0.0723 ± 0.0126%, the Differentially expressed proteins [3] is reported as 319 and the Down-regulation [3] is reported as 312. For the same molecule, the Up-regulation [3] was 7, the “RTV (d 22)” value (human lung cancer A549) was 3.83 ± 0.64 and the inhibition in vivo at 400 mg/kg (human lung cancer A549; Mus musculus, po, read-out: Tumor inhibitory rate %) was 67.4%. For the same molecule, the “The ratio of distribution area in tumor tissues (%)” value [4] was 6.547 ± 0.5843%, the “RTV (d 18)” value [6] was 4.78 ± 0.83 and the “Tumor inhibitory rate %” value [6] was 53.64^## %.
